Assay: logP (pH2.3), physical properties of Tables 1 to 3
Type: physicochemical
Details: for Physical properties: logP: Table 1
Description: However, the present invention is not limited to these compounds. In the tables, the term “physical properties” means a melting point or logp. The symbol “Me” represents a methyl group, “Et” represents an ethyl group, “Pr” represents a propyl group, “-n” represents normal, and “-i” represents iso.

Cc1c(NC(=O)c2cccc(Br)c2C(=O)N[C@@H](C)CS(C)(=O)=O)ccc(C(F)(C(F)(F)F)C(F)(F)F)c1F [Compound 1-170]
Physical properties: logP: 3.21

CCSC[C@H](C)NC(=O)c1c(Br)cccc1C(=O)Nc1ccc(C(F)(F)C(F)(F)F)c(F)c1C [Compound 1-171]
Physical properties: logP: 4.26

CC[S+]([O-])C[C@H](C)NC(=O)c1c(Br)cccc1C(=O)Nc1ccc(C(F)(F)C(F)(F)F)c(F)c1C (some centres unmarked) [Compound 1-172]
Physical properties: logP: 2.59

CCS(=O)(=O)C[C@H](C)NC(=O)c1c(Br)cccc1C(=O)Nc1ccc(C(F)(F)C(F)(F)F)c(F)c1C [Compound 1-173]
Physical properties: logP: 3.06

CCSC[C@H](C)NC(=O)c1c(Br)cccc1C(=O)Nc1ccc(C(F)(F)C(F)(F)F)c(Cl)c1C [Compound 1-174]
Physical properties: logP: 4.43

CCS(=O)(=O)C[C@H](C)NC(=O)c1c(Br)cccc1C(=O)Nc1ccc(C(F)(F)C(F)(F)F)c(Cl)c1C [Compound 1-176]
Physical properties: logP: 3.19

CCSC[C@H](C)NC(=O)c1c(Br)cccc1C(=O)Nc1ccc(Br)c(F)c1C [Compound 1-177]
Physical properties: logP: 3.54

CCS(=O)(=O)C[C@H](C)NC(=O)c1c(Br)cccc1C(=O)Nc1ccc(Br)c(F)c1C [Compound 1-179]
Physical properties: logP: 2.39

CCSC[C@H](C)NC(=O)c1c(Br)cccc1C(=O)Nc1ccc(C(F)(F)F)c(F)c1C [Compound 1-180]
Physical properties: logP: 3.80

CCS(=O)(=O)C[C@H](C)NC(=O)c1c(Br)cccc1C(=O)Nc1ccc(C(F)(F)F)c(F)c1C [Compound 1-182]
Physical properties: logP: 2.66

CCSC[C@H](C)NC(=O)c1c(Br)cccc1C(=O)Nc1ccc(I)c(F)c1C [Compound 1-183]
Physical properties: logP: 3.66

CCS(=O)(=O)C[C@H](C)NC(=O)c1c(Br)cccc1C(=O)Nc1ccc(I)c(F)c1C [Compound 1-185]
Physical properties: logP: 2.51

CCSC[C@H](C)NC(=O)c1c(Br)cccc1C(=O)Nc1ccc(Br)c(Br)c1C [Compound 1-186]
Physical properties: logP: 3.78

CCS(=O)(=O)C[C@H](C)NC(=O)c1c(Br)cccc1C(=O)Nc1ccc(Br)c(Br)c1C [Compound 1-188]
Physical properties: logP: 2.59

CCSC[C@H](C)NC(=O)c1c(Br)cccc1C(=O)Nc1ccc(OC(F)(F)F)c(F)c1C [Compound 1-189]
Physical properties: logP: 3.81

CCS(=O)(=O)C[C@H](C)NC(=O)c1c(Br)cccc1C(=O)Nc1ccc(OC(F)(F)F)c(F)c1C [Compound 1-191]
Physical properties: logP: 2.69

CCSC[C@H](C)NC(=O)c1c(Br)cccc1C(=O)Nc1cc(F)c(OC(F)(F)F)cc1Cl [Compound 1-192]
Physical properties: logP: 4.16

CCS(=O)(=O)C[C@H](C)NC(=O)c1c(Br)cccc1C(=O)Nc1cc(F)c(OC(F)(F)F)cc1Cl [Compound 1-194]
Physical properties: logP: 2.96

CCSC[C@H](C)NC(=O)c1c(Br)cccc1C(=O)Nc1cc(F)c(OC(F)(F)F)cc1Br [Compound 1-195]
Physical properties: logP: 4.18

CCS(=O)(=O)C[C@H](C)NC(=O)c1c(Br)cccc1C(=O)Nc1cc(F)c(OC(F)(F)F)cc1Br [Compound 1-197]
Physical properties: logP: 2.99

CCSC[C@H](C)NC(=O)c1c(Br)cccc1C(=O)Nc1ccc(C(F)(C(F)(F)F)C(F)(F)F)c(F)c1C [Compound 1-198]
Physical properties: logP: 4.63

CC[S+]([O-])C[C@H](C)NC(=O)c1c(Br)cccc1C(=O)Nc1ccc(C(F)(C(F)(F)F)C(F)(F)F)c(F)c1C (some centres unmarked) [Compound 1-199]
Physical properties: logP: 2.90

CCS(=O)(=O)C[C@H](C)NC(=O)c1c(Br)cccc1C(=O)Nc1ccc(C(F)(C(F)(F)F)C(F)(F)F)c(F)c1C [Compound 1-200]
Physical properties: logP: 3.39

CCSC[C@H](C)NC(=O)c1c(Cl)cccc1C(=O)Nc1ccc(C(F)(C(F)(F)F)C(F)(F)F)c(F)c1C [Compound 1-201]
Physical properties: logP: 4.54

CC[S+]([O-])C[C@H](C)NC(=O)c1c(Cl)cccc1C(=O)Nc1ccc(C(F)(C(F)(F)F)C(F)(F)F)c(F)c1C (some centres unmarked) [Compound 1-202]
Physical properties: logP: 2.86

CCS(=O)(=O)C[C@H](C)NC(=O)c1c(Cl)cccc1C(=O)Nc1ccc(C(F)(C(F)(F)F)C(F)(F)F)c(F)c1C [Compound 1-203]
Physical properties: logP: 3.34

CSC[C@H](C)NC(=O)c1c(Cl)cccc1C(=O)Nc1ccc(C(F)(C(F)(F)F)C(F)(F)F)c(F)c1C [Compound 1-204]
Physical properties: logP: 4.23

Cc1c(NC(=O)c2cccc(Cl)c2C(=O)N[C@@H](C)C[S+](C)[O-])ccc(C(F)(C(F)(F)F)C(F)(F)F)c1F (some centres unmarked) [Compound 1-205]
Physical properties: logP: 2.69

CCSC[C@H](C)NC(=O)c1c(Cl)cccc1C(=O)Nc1ccc(C(F)(F)C(F)(F)F)c(F)c1C [Compound 1-207]
Physical properties: logP: 4.21

CC[S+]([O-])C[C@H](C)NC(=O)c1c(Cl)cccc1C(=O)Nc1ccc(C(F)(F)C(F)(F)F)c(F)c1C (some centres unmarked) [Compound 1-208]
Physical properties: logP: 2.56

CCS(=O)(=O)C[C@H](C)NC(=O)c1c(Cl)cccc1C(=O)Nc1ccc(C(F)(F)C(F)(F)F)c(F)c1C [Compound 1-209]
Physical properties: logP: 3.01

CCSC[C@H](C)NC(=O)c1c(Cl)cccc1C(=O)Nc1ccc(C(F)(F)C(F)(F)F)c(Cl)c1C [Compound 1-210]
Physical properties: logP: 4.37

CCS(=O)(=O)C[C@H](C)NC(=O)c1c(Cl)cccc1C(=O)Nc1ccc(C(F)(F)C(F)(F)F)c(Cl)c1C [Compound 1-212]
Physical properties: logP: 3.14

CSC[C@H](C)NC(=O)c1c(Cl)cccc1C(=O)Nc1ccc(C(F)(F)C(F)(F)F)c(F)c1C [Compound 1-213]
Physical properties: logP: 3.88

Cc1c(NC(=O)c2cccc(Cl)c2C(=O)N[C@@H](C)CS(C)(=O)=O)ccc(C(F)(F)C(F)(F)F)c1F [Compound 1-215]
Physical properties: logP: 2.82

CCc1cc(C(F)(C(F)(F)F)C(F)(F)F)ccc1NC(=O)c1cccc(Cl)c1C(=O)N[C@@H](C)CSC [Compound 1-216]
Physical properties: logP: 4.36

CCc1cc(C(F)(C(F)(F)F)C(F)(F)F)ccc1NC(=O)c1cccc(Cl)c1C(=O)N[C@@H](C)CS(C)(=O)=O [Compound 1-218]
Physical properties: logP: 3.26

CCc1cc(C(F)(C(F)(F)F)C(F)(F)F)ccc1NC(=O)c1cccc(Br)c1C(=O)N[C@@H](C)CSC [Compound 1-219]
Physical properties: logP: 4.42

CCc1cc(C(F)(C(F)(F)F)C(F)(F)F)ccc1NC(=O)c1cccc(Br)c1C(=O)N[C@@H](C)CS(C)(=O)=O [Compound 1-221]
Physical properties: logP: 3.31

CC[C@@H](CSC)NC(=O)c1c(Cl)cccc1C(=O)Nc1ccc(C(F)(C(F)(F)F)C(F)(F)F)cc1C [Compound 1-339]
Physical properties logP(pH2.3): 4.47

CC[C@@H](CS(C)(=O)=O)NC(=O)c1c(Cl)cccc1C(=O)Nc1ccc(C(F)(C(F)(F)F)C(F)(F)F)cc1C [Compound 1-341]
Physical properties logP(pH2.3): 3.31

CC[C@@H](CSC)NC(=O)c1c(Br)cccc1C(=O)Nc1ccc(C(F)(C(F)(F)F)C(F)(F)F)cc1C [Compound 1-342]
Physical properties logP(pH2.3): 4.54

CC[C@@H](C[S+](C)[O-])NC(=O)c1c(Br)cccc1C(=O)Nc1ccc(C(F)(C(F)(F)F)C(F)(F)F)cc1C (some centres unmarked) [Compound 1-343]
Physical properties logP(pH2.3): 2.83

CC[C@@H](CS(C)(=O)=O)NC(=O)c1c(Br)cccc1C(=O)Nc1ccc(C(F)(C(F)(F)F)C(F)(F)F)cc1C [Compound 1-344]
Physical properties logP(pH2.3): 3.37

From patent US20080051457A1, “Optically Active Phthalamide Derivative, Agricultural or Horticultural Insecticide, and Method of Using the Same” (priority 2004, published 2008)
